Assay results: ChEMBL document CHEMBL1938391, “Design and synthesis of novel photoaffinity probes for study of the target proteins of oleanolic acid” (Bioorg Med Chem Lett, 2012)

Molecular target: T1, Glycogen phosphorylase, muscle form (Oryctolagus cuniculus, UniProt P00489)
T1 sequence (P00489 whole entry): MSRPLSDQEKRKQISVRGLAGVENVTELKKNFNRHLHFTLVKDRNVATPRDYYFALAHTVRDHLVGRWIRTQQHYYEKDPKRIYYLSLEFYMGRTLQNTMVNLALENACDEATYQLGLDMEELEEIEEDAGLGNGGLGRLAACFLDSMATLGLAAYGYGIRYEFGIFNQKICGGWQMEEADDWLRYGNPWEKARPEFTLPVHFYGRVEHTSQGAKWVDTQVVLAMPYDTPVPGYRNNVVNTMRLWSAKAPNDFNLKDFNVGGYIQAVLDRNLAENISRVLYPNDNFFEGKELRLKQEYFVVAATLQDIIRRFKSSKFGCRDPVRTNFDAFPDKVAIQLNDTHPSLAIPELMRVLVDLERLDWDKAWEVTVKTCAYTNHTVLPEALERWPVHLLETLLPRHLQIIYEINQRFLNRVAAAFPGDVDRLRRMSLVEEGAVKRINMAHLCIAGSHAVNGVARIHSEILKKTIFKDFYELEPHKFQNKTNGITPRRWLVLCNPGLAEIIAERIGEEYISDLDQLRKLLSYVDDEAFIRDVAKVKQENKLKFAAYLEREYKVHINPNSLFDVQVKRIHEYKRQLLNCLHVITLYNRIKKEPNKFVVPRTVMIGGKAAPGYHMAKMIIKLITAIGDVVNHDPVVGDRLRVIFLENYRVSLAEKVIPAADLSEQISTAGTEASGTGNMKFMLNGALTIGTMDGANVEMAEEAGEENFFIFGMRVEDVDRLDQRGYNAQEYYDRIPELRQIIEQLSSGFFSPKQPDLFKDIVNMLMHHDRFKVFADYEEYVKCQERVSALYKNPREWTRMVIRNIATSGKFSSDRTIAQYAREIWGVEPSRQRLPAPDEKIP
Assay: Inhibition of rabbit muscle glycogen phosphorylase a assessed as release of phosphate from glucose-1-phosphate after 25 mins using malachite green staining

IC50 [µM]	SMILES
41.1	CC1(C)CC[C@]2(C(=O)O)CC[C@]3(C)C(=CC[C@@H]4[C@@]5(C)CC[C@H](OC(=O)COCCOCCNC(=O)c6ccc(C(=O)c7ccc(NC(=O)CCCC[C@@H]8SC[C@@H]9NC(=O)N[C@@H]98)cc7)cc6)C(C)(C)[C@@H]5CC[C@]43C)[C@@H]2C1
115	CC1(C)CC[C@]2(C(=O)O)CC[C@]3(C)C(=CC[C@@H]4[C@@]5(C)CC[C@H](OC(=O)COCCOCCNC(=O)c6ccc(C(=O)c7ccc(NC(=O)CN=[N+]=[N-])cc7)cc6)C(C)(C)[C@@H]5CC[C@]43C)[C@@H]2C1
